Experimental data from ChEMBL document CHEMBL2073830, “A novel inhibitor of the mammalian peptide transporter PEPT1” (Biochemistry, 2001).
Non-standard residues stand in square brackets, D forms with d. Residues, ends and D or L forms follow the SMILES beside them. *: point of attachment. Cbz = O=C(OCc1ccccc1)*

The compounds below were run against T1, Solute carrier family 15 member 1 (Homo sapiens, UniProt P46059) (assay: TP_TRANSPORTER: inhibition of Gly-Sar uptake in Caco-2 cells).
T1 sequence (P46059 whole entry): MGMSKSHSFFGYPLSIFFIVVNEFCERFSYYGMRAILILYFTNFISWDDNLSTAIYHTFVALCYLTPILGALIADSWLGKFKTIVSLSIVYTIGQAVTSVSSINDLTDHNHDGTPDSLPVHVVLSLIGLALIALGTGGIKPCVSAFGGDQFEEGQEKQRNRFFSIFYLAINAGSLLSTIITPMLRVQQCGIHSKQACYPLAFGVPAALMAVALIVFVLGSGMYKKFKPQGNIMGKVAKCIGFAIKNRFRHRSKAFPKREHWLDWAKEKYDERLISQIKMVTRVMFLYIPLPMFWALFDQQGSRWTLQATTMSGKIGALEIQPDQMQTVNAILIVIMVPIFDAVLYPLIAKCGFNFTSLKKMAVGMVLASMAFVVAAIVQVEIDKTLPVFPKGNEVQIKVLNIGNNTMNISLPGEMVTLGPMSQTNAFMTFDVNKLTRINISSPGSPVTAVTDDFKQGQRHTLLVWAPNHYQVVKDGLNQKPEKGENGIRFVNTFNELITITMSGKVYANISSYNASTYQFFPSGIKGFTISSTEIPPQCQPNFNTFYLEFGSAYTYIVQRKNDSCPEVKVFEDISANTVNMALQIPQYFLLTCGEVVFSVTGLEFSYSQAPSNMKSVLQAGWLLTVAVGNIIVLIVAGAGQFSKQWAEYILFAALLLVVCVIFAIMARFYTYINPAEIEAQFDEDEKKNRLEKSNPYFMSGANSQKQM
Type: functional, cell-based

Ki [µM] | Structure (SMILES)
33 | NCCCC[C@H](NC(=O)OCc1ccccc1)C(=O)N1CCC[C@H]1C(=O)O (Cbz-Lys-Pro-OH)
19 | N[C@@H](CCCCNC(=O)OCc1ccc([N+](=O)[O-])cc1)C(=O)N1CCC[C@H]1C(=O)O
350 | NCCCC[C@H](N)C(=O)N1CCC[C@@H]1C(=O)O (H-Lys-[dP]-OH)
